Values belong to the compound of their own block, whether it stands above or below them.
How the values were obtained:
[1] = tested on: Fos-positive cells in brain regions of interest; assay: Fos immunohistochemistry in rat brain; format: in vivo, male Wistar rats; conditions: OT 1 mg/kg, SOC-1 5 mg/kg
Method: Fos immunohistochemistry was used to identify the neural “signature” of SOC-1 (5 mg/kg) in rat brain relative to injections of peripheral oxytocin (OT) (1 mg/kg). SOC-1 produces a similar overall pattern of neural activation and behavioural effects as OT. However, the effects are much larger and additional areas are activated by SOC-1 that are implicated in the regulation of social behaviour (e.g. lateral septum, medial preoptic area and supraoptic nucleus). SOC-1 produces powerful activation of OT-containing neurons in both the supraoptic (FIG. 6: (A)=vehicle; (B)=oxytocin; and (C)=SOC-1) and paraventricular nucleus of the hypothalamus.

HEK-293 cells = assay: Cell viability (Cell Titer Blue); format: cell-based; conditions: 48 hours; for Viability: mean ± SD
Method: (§1) No apparent cytotoxicity of SOC-1 has been seen in vitro or toxicity in vivo. In a test, SH-SY5Y neuroblastoma cells and HEK-293 cells (4×10^4 cells per well) were exposed to OT or SOC-1 (0.01-10 μM) for 48 hours, with daily media changes. Viability of cells was assessed after a 4 hour exposure to Cell Titer Blue (Promega).

[2] = tested on: SH-SY5Y neuroblastoma cells; assay: Cell viability (Cell Titer Blue); format: cell-based; conditions: 48 hours; for Viability: mean ± SD
Method: as §1

male Sprague Dawley rats = assay: Methamphetamine-primed reinstatement; format: in vivo, rat; conditions: C25 10 mg/kg IP or SR49059 1 mg/kg IP before SOC-1 10 mg/kg
Wistar rats = assay: Biotelemetry of body temperature and heart rate; format: in vivo, rat; conditions: SR49059 10 mg/kg before SOC-1
Method: FIG. 7—The monitored body temperatures of Wistar rats administered vehicle, SOC-1 (5 mg/kg), or SOC-1 and the V1A receptor antagonist SR49059 (10 mg/kg).
FIG. 8—The monitored heart rates for Wistar rats administered vehicle, SOC-1 (5 mg/kg), or SOC-1 and the V1A receptor antagonist SR49059 (10 mg/kg).
However, the rats were not ataxic or comatose, they were simply in a relaxed quiescent state. […] Effects on body temperature and other behaviours are not blocked by pre-treatment with the vasopressin V1A receptor antagonist SR49059 (10 mg/kg). […] The data in these two studies was gathered with DataSciences International biotelemetry system.

SMILES: CC[C@H](C)[C@@H]1NC(=O)[C@H](Cc2ccc(O)cc2)NC(=O)[C@@H](N)CSSC[C@@H](C(=O)N2CCC[C@H]2C(=O)N[C@@H](CC(C)C)C(=O)NCC(N)=O)NC(=O)[C@H](CC(N)=O)NC(=O)[C@H](CCC(N)=O)NC1=O [Oxytocin, oxytocin, reference compound]
Mean number of Fos-positive cells, BNST (dorsolateral division) [1]: 11.33 | Mean number of Fos-positive cells, BNST (middle anterior part)) [1]: 5.83 | Mean number of Fos-positive cells, Central nucleus of the amygdala [1]: 25.14 | Mean number of Fos-positive cells, Lateral Parabrachial nucleus [1]: 19.14 | Mean number of Fos-positive cells, Lateral septum (ventral) [1]: 9.17 | Mean number of Fos-positive cells, Locus Ceruleus [1]: 4.14 | Mean number of Fos-positive cells, Medial preoptic area [1]: 3.8 | Mean number of Fos-positive cells, Median preoptic nucleus [1]: 7.17 | Mean number of Fos-positive cells, Nucleus of Solitary Tract [1]: 31.68 | Mean number of Fos-positive cells, PAG (ventrolateral) [1]: 6.57 | Mean number of Fos-positive cells, Paraventircular nucleus [1]: 55.57 | Mean number of Fos-positive cells, Supraoptic nucleus [1]: 4.57 | Mean percent of OT cells that were Fos positive, Paraventircular nucleus [1]: 22.07% | Mean percent of OT cells that were Fos positive, Supraoptic nucleus [1]: 13.5% | Viability (HEK-293 cells; 0.01 μM): 97.8 ± 6.6 percentage of vehicle viability | Viability (HEK-293 cells; 0.1 μM): 100.0 ± 3.2 percentage of vehicle viability | Viability (HEK-293 cells; 1 μM): 101.5 ± 3.7 percentage of vehicle viability | Viability (HEK-293 cells; 10 μM): 104.3 ± 2.6 percentage of vehicle viability | differences in viability (HEK-293 cells; 0.01-10 μM): No significant differences in viability | Viability ([2]; 0.01 μM): 100.4 ± 2.4 percentage of vehicle viability | Viability ([2]; 0.1 μM): 101.3 ± 1.0 percentage of vehicle viability | Viability ([2]; 1 μM): 100.2 ± 1.1 percentage of vehicle viability | Viability ([2]; 10 μM): 100.6 ± 2.9 percentage of vehicle viability | differences in viability ([2]; 0.01-10 μM): No significant differences in viability

melting point: 172 to 173 °C
SMILES: Cc1ccc2c(c1)NCc1cnn(C)c1N2 [FB-SOC-4, 1,7-Dimethyl-1,4,5,10-tetrahydrobenzo[b]pyrazolo[3,4-e][1,4]diazapine]

melting point: 181 to 183 °C
SMILES: Cn1ncc2c1Nc1ccc(F)cc1NC2 [FB-SOC-2, 7-Fluoro-1-methyl-1,4,5,10-tetrahydrobenzo[b]pyrazolo[3,4-e][1,4]diazapine]

SMILES: COCc1nnc(N2CC(Oc3ccc(F)cc3Cl)C2)n1-c1ccc(OC)nc1 [C25, 5-(3-(3-(2-chloro-4-fluorophenoxy)azetidin-1-yl)-5-(methoxymethyl)-4H-1,2,4-triazol-4-yl)-2-methoxypyridine, reference compound]
block of the attenuating effect of SOC-1 on methamphetamine-primed reinstatement (male Sprague Dawley rats): failed to block the attenuating effect of SOC-1

melting point: 126 to 128 °C
SMILES: COc1ccc2c(c1)NCc1cnn(C)c1N2 [FB-SOC-6, 7-Methoxy-1-methyl-1,4,5,10-tetrahydrobenzo[b]pyrazolo[3,4-e][1,4]diazapine]

SMILES: COc1ccc(S(=O)(=O)N2c3ccc(Cl)cc3[C@](O)(c3ccccc3Cl)[C@@H]2C(=O)N2CCC[C@H]2C(N)=O)cc1OC [SR49059, reference compound]
block of the attenuating effect of SOC-1 on methamphetamine-primed reinstatement (male Sprague Dawley rats): failed to block the attenuating effect of SOC-1 | block of SOC-1 effects on body temperature and other behaviours by pre-treatment (Wistar rats): not blocked

melting point: 137 to 139 °C
SMILES: Cc1cccc2c1Nc1c(cnn1C)CN2 [FB-SOC-5, 1,9-Dimethyl-1,4,5,10-tetrahydrobenzo[b]pyrazolo[3,4-e][1,4]diazepine]

From US11890287B2, “Therapeutic compounds and compositions for treating social disorders and substance use disorders” (Kinoxis Therapeutics Pty Ltd, priority 2015, dated 2024)
